According to US7968526B2, “Antisense oligonucleotides directed to ribonucleotide reductase R2 and uses thereof in the treatment of cancer” (Lorus Therapeutics Inc., priority 2003, dated 2011):
“Also recorded” adds a separate entry of the source. [5mC] = 5-methylcytosine

Columns and labels:
[1] = system: MDA-MB-231 human breast cancer cells; test: MDA-MB-231 breast tumour xenograft in CD-1 nude mice, combination with taxol or doxorubicin (1.7); format: in vivo, human cells in mice; conditions: MDA-MB-231, CD-1 nude mice; oligonucleotides 10 mg/kg i.v. every other day; taxol 10 mg/kg, doxorubicin 5 mg/kg i.v. weekly
Protocol: After 52 days the mice were sacrificed and the tumours weighed. […] Mitoxantrone was administered intravenously once at the beginning of the treatments at a dose of 2 mg/kg (FIG. 4A) or once a week for four weeks at a reduced dose of 0.8 mg/kg (FIG. 4B). All treatments were stopped at day 50 (FIG. 4A) or 48 (FIG. 4B), respectively. […] Mitoxantrone was administered intravenously once at the beginning of the treatments at a dose of 2 mg/kg (FIG. 5A) or once a week for four weeks at a reduced dose of 0.8 mg/kg (FIG. 5B). All treatments were stopped at day 42 (FIG. 5A) or 38 (FIG. 5B), respectively. […] A2058 is a metastatic melanoma cell line. […] All treatments were stopped at day 24. […] Taxol was administered intravenously once a week at a dose of 10 mg/kg for three (FIG. 7A) or four weeks (FIG. 7C). Doxorubicin was administered intravenously once a week at a dose of 5 mg/kg for first three weeks (FIG. 7A) or for two weeks (FIG. 7C). All treatments were stopped at day 33 (FIG. 7A) or at day 26 (FIG. 7C), respectively. […] In FIG. 7C, antitumour activities were estimated by the inhibition of tumour volume, which was measured with calipers. Each point represents mean tumour volume calculated from 10 animals per experimental group. […] Taxol was administered intravenously once a week for first three weeks and intraperitoneally once a week for next two weeks at a dose of 10 mg/kg. Cisplatin was administered intravenously once a week for first three weeks and intraperitoneally once a week for next two weeks at a dose of 4 mg/kg. All treatments were stopped at day 40. Antitumour activities were estimated by the inhibition of tumour volume, which was measured with caliper. Each point represents mean tumour volume calculated from 9 animals per experimental group.

[2] = system: Hep G2 human liver cancer cells; test: HepG2 liver tumour growth in CD-1 nude mice (3.7); format: in vivo, human cells in mice; conditions: Hep G2, CD-1 nude mice; 2.5 mg/kg i.v. every day, 30 days
Protocol: Treatments lasted for 14 days thereafter. Antitumour activities were estimated by the inhibition of tumour volume, which was measured with a caliper on four different occasions over the treatment period. Each point represents mean tumour volume calculated from 5 animals per experimental group. […] Control animals (control) received saline alone for the same period. At the end of the treatments, the animals were sacrificed, tumours were excised and their weights were measured. Each bar represents mean tumour weight calculated from 6 animals per experimental group. […] Treatments lasted for 24 days thereafter. Antitumour activities were estimated by the inhibition of tumour volume, which was measured with a caliper at two-day intervals over the treatment period. Each point represents mean tumour volume calculated from 4 animals per experimental group. […] Treatments lasted for 24 days thereafter. Antitumour activities were estimated by the inhibition of tumour volume, which was measured with a caliper at two-day intervals over the treatment period. Each point represents mean tumour volume calculated from 4 animals per experimental group. […] Treatments lasted for 22 days thereafter. […] Each point represents mean tumour volume calculated from 5 animals per experimental group. […] Treatments lasted for 14 days thereafter. Antitumour activities were estimated by the inhibition of tumour volume, which was measured with a caliper on four different occasions over 16-day period. Each point represents mean tumour volume calculated from 5 animals per experimental group. […] Two different batches of SEQ ID NO:1, synthesized at different times (designated as batch 1 and batch 2), were tested to detect possible batch-specific effects. […] Treatments lasted for 34 days thereafter. Antitumour activities were estimated by the inhibition of tumour volume, which was measured with a caliper at two-day intervals over the treatment period. Each point represents mean tumour volume calculated from 5 animals per experimental group. […] Treatments lasted for 30 days thereafter. Antitumour activities were estimated by the inhibition of tumour volume, which was measured with a caliper at various time intervals over the span of 30 days. Each point represents mean tumour volume calculated from 6 animals per experimental group. […] All treatments were stopped at day 36. Antitumour activities were estimated by the inhibition of tumour volume, which was measured with a caliper. Each point represents mean tumour volume calculated from 5 animals per experimental group. […] All treatments were stopped at day 52. […] Antitumour activities were estimated by the inhibition of tumour volume, which was measured with a caliper.

[3] = system: C8161 human metastatic melanoma cells; test: Experimental metastasis assay, C8161 cells, treatment post tumour cell injection; format: in vivo, human cells in mice; conditions: C8161 cells i.v. into SCID mice; treatment initiated after 2 days; lungs 5-7 weeks later
Protocol: C8161 human melanoma cells were seeded into 100 mm tissue culture dishes at a density of 2×10^6 and incubated overnight at 37° C. in α-MEM medium supplemented with 10% FBS. The cells were trypsinized, collected by centrifugation and aliquots were removed from the suspension to determine the cell viability using trypan blue exclusion test. […] Treatment was initiated after 2 days. Estimates of the number of lung nodules were made 5-7 weeks later, after excised lungs from individual mice were stained with picric acid dye solution (75% picric acid, 20% formaldehyde, 5% glacial acetic acid).
Murine R3 fibrosarcoma and human C8161 melanoma cells injected into the tail vein of mice form observable lung nodules 2 weeks post-injection. […] To more accurately reflect the clinical situation, mice were treated with SEQ ID NO:1 post tumour cell injection. C8161 human metastatic melanoma cells were seeded into 100 mm tissue culture dishes at a density of 2×10^6 and incubated overnight at 37° C. in α-MEM medium supplemented with 10% FBS. The cells were trypsinized, collected by centrifugation and aliquots were removed from the suspension to determine the cell viability using trypan blue exclusion test. Approximately 1×10^5 cells suspended in 0.1 ml of PBS were injected into the tail veins of 6-8 week old female SCID mice. Treatment was initiated after 2 days. Estimates of the number of lung nodules were made 5-7 weeks later, after excised lungs from individual mice were stained with picric acid dye solution (75% picric acid, 20% formaldehyde, 5% glacial acetic acid). The results are shown in FIG. 31, bars represent the mean number of nodules per mouse with standard error.

[4] = system: human Burkitt's lymphoma (Raji) cells; test: Survival of SCID mice bearing human Burkitt's lymphoma (Raji); format: in vivo, human cells in mice; conditions: 10 mg/kg i.v. every second day
Protocol: Mice with established human Burkitt's lymphoma tumours were treated every second day with either saline or SEQ ID NO:1 for 44 days as described above. The control group mice all died from disease progression by day 20. At day 44, the SEQ ID NO:1 mice continued treatment on a weekly basis until stopping the treatment at day 73.
As an additional test of efficacy SEQ ID NO:1 was administered to SCID mice bearing active Burkitt's lymphoma (FIG. 30). Viable human Burkitt's lymphoma (Raji) cells (5×10^6) collected from subconfluent logarithmically growing cultures were injected i.v. into each animal and disease was allowed to establish for 2 days. SEQ ID NO:1, SEQ ID NO:3 and SEQ ID NO:2, in normal saline were administered by tail vein injection every second day at a dose of 10 mg/kg. At day 40 the treatment schedule was reduced to 10 mg/kg every 3 days. Control animals received saline alone, without oligonucleotide. Survival is presented as a percentage of the starting number of mice over time.

[5] = system: HT-29 human colon cancer cells; conditions: SEQ ID NO:1 6 mg/kg i.v. every day, mitomycin C 3.5 mg/kg/week i.v.
Protocol: • 1.1 HT-29 human colon cancer cells (3×10^6 cells in 100 μl of PBS) were subcutaneously injected into the right flank of 6-7 weeks old female CD-1 nude mice. After the size of tumour reached an approximate volume of 50 mm^3, 4 days post tumour cell injection, mitomycin C was administered by bolus infusion into the tail vein at days 4, 11 and 18 with a dose of 3.5 mg/kg/week. […] SEQ ID NO:1 was administered by bolus infusion into the tail vein every day at 6 mg/kg and mitomycin C was administered intravenously at days 4, 11 and 18 with a dose of 3.5 mg/kg/week, one hour after the treatments with SEQ ID NO:1. Control animals received saline alone for the same period as SEQ ID NO:1. All treatments were stopped at day 22. A day after the last treatment, tumours were excised from the animals and their weights were measured.

HT29 tumour xenografts = HT29 tumour xenografts in CD-1 nude mice, methylated oligonucleotides; format: in vivo, human cells in mice; conditions: compared with SEQ ID NO:1
[6] = SCID mice (Example 7, FIG. 30), from day 40 every 3 days
[7] = SCID mice, stopped at day 42, sacrificed day 73, untreated all died within 23 days

Compound | Lung nodule formation / anti-metastatic activity (FIG. 31) [3] | Survival of mice [4, 6] | Survival of mice [4, 7] | Anti-tumour activity (FIG. 33) (HT29 tumour xenografts) | other results
5′-ACGCACTCAGCTAGTGACAC-3′ (listed as DNA, chemistry not given here) [SEQ ID NO:3, reference compound] | no anti-metastatic activity | neither SEQ ID NO:3 nor SEQ ID NO:2 control ODNs prolonged survival | no observed efficacy |  | Antitumour effect (tumour weight / volume, FIG. 7) [1]: no significant anti-tumour activity as a monotherapy; also recorded: does not cooperate with doxorubicin; Inhibitory effect on tumour growth (tumour volume, FIG. 20) [2]: did not differ from that in saline treated mice
5′-GGCTAAACTCGTCCACCAAG-3′ (listed as DNA, chemistry not given here) [SEQ ID NO:2, reference compound] | no anti-metastatic activity | neither SEQ ID NO:3 nor SEQ ID NO:2 control ODNs prolonged survival | no observed efficacy |  | 
CO[C@@]12[C@H](COC(N)=O)C3=C(C(=O)C(C)=C(N)C3=O)N1C[C@@H]1N[C@@H]12 [Mitomycin C, mitomycin C] |  |  |  |  | Tumour weight as % of saline control ([5]; HT-29 (colon), SCID mouse as printed): 15%; Antitumour effect (tumour weight, FIG. 1) ([5]; HT-29, CD-1 nude mice): significant delay of tumour growth compared to saline control
SEQ ID NO:4: SEQ ID NO:1 with methylation at the CpG (C9) (GGCTAAATCGCTCCACCAAG; [5mC] at 9, all phosphorothioate, sugars by position and methylation of C not given here) |  |  |  | does not abrogate the anti-tumour activity of SEQ ID NO:1; also recorded: measurable, but not significant, effect on the anti-tumour activity | 
SEQ ID NO:5: control oligonucleotide (met-11C) (GGCTAAATCGCTCCACCAAG; listed as DNA, chemistry not fully specified) [reference compound] |  |  |  | measurable, but not significant, effect on the anti-tumour activity | 
